Measured values: the supplement of paper PMC10307832

Columns and labels:
Assay in all cases: relative viability (nuclei count vs DMSO), 5 days (fraction); higher = more cells survive
Tipifarnib + Alpelisib = compound: Cn1cncc1[C@@](N)(c1ccc(Cl)cc1)c1ccc2c(c1)c(-c1cccc(Cl)c1)cc(=O)n2C [Tipifarnib] + Cc1nc(NC(=O)N2CCC[C@H]2C(N)=O)sc1-c1ccnc(C(C)(C)C(F)(F)F)c1 [Alpelisib] (partner 2 µM)
Outline: (§1)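 For relative viability, nuclei counts in treated wells were divided by those in vehicle wells. Lung cancer cell lines had been pin-tool dosed in 1536-well plates the day after seeding and cultured for 5 days, then fixed and stained in one step (final 0.05% Triton X-100, 1% formaldehyde, 1 ug/ml Hoechst) and imaged at 4×. Doses were one drug alone or a fixed anchor-drug dose plus five library-drug doses (not always all listed) in √10 steps, and values are duplicate-plate medians.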

Tipifarnib + Tozasertib = compound: Cn1cncc1[C@@](N)(c1ccc(Cl)cc1)c1ccc2c(c1)c(-c1cccc(Cl)c1)cc(=O)n2C [Tipifarnib] + Cc1cc(Nc2cc(N3CCN(C)CC3)nc(Sc3ccc(NC(=O)C4CC4)cc3)n2)n[nH]1 [Tozasertib] (partner 0.1 µM)
Outline: as §1

Tipifarnib + Dasatinib = compound: Cn1cncc1[C@@](N)(c1ccc(Cl)cc1)c1ccc2c(c1)c(-c1cccc(Cl)c1)cc(=O)n2C [Tipifarnib] + Cc1nc(Nc2ncc(C(=O)Nc3c(C)cccc3Cl)s2)cc(N2CCN(CCO)CC2)n1 [Dasatinib] (partner 0.075 µM)
Outline: as §1

Tipifarnib + Luminespib = compound: Cn1cncc1[C@@](N)(c1ccc(Cl)cc1)c1ccc2c(c1)c(-c1cccc(Cl)c1)cc(=O)n2C [Tipifarnib] + CCNC(=O)c1noc(-c2cc(C(C)C)c(O)cc2O)c1-c1ccc(CN2CCOCC2)cc1 [Luminespib] (partner 0.01 µM)
Outline: as §1

Row | Cell Line | relative viability (Tipifarnib + Alpelisib; first compound 0.01 µM) | relative viability (Tipifarnib + Alpelisib; first compound 0.03162 µM) | relative viability (Tipifarnib + Alpelisib; first compound 0.1 µM) | relative viability (Tipifarnib + Alpelisib; first compound 0.3162 µM) | relative viability (Tipifarnib + Alpelisib; first compound 1 µM) | relative viability (Tipifarnib + Tozasertib; first compound 0.01 µM) | relative viability (Tipifarnib + Tozasertib; first compound 0.03162 µM) | relative viability (Tipifarnib + Tozasertib; first compound 0.1 µM) | relative viability (Tipifarnib + Tozasertib; first compound 0.3162 µM) | relative viability (Tipifarnib + Tozasertib; first compound 1 µM) | relative viability (Tipifarnib + Dasatinib; first compound 0.01 µM) | relative viability (Tipifarnib + Dasatinib; first compound 0.03162 µM) | relative viability (Tipifarnib + Dasatinib; first compound 0.1 µM) | relative viability (Tipifarnib + Dasatinib; first compound 0.3162 µM) | relative viability (Tipifarnib + Dasatinib; first compound 1 µM) | relative viability (Tipifarnib + Luminespib; first compound 0.01 µM) | relative viability (Tipifarnib + Luminespib; first compound 0.03162 µM) | relative viability (Tipifarnib + Luminespib; first compound 0.1 µM) | relative viability (Tipifarnib + Luminespib; first compound 0.3162 µM) | relative viability (Tipifarnib + Luminespib; first compound 1 µM)
1 | LU99A | 0.442 | 0.36 | 0.297 | 0.261 | 0.238 | 0.261 | 0.249 | 0.223 | 0.232 | 0.223 | 0.68 | 0.524 | 0.432 | 0.205 | 0.306 | 0.343 | 0.22 | 0.241 | 0.207 | 0.233
2 | LXF-289 | 1.05 | 1.05 | 0.988 | 0.889 | 0.983 | 0.224 | 0.192 | 0.21 | 0.142 | 0.152 | 0.218 | 0.237 | 0.249 | 0.217 | 0.0926 | 0.651 | 0.68 | 0.701 | 0.554 | 0.444
3 | NCI-H23 | 0.717 | 0.791 | 0.517 | 0.454 | 0.372 | 0.346 | 0.371 | 0.384 | 0.253 | 0.259 | 0.76 | 0.711 | 0.667 | 0.473 | 0.282 | 0.243 | 0.242 | 0.223 | 0.199 | 0.24
4 | NCI-H522 |  |  |  |  |  | 0.517 | 0.564 | 0.525 | 0.542 | 0.566 | 0.95 | 0.912 | 0.861 | 0.82 | 0.788 | 0.831 | 1.33 | 1.18 | 1.08 | 1.27
5 | NCI-H1563 | 0.991 | 0.867 | 0.862 | 0.893 | 0.757 |  |  |  |  |  | 0.44 | 0.53 | 0.453 | 0.489 | 0.387 | 0.491 | 0.558 | 0.538 | 0.519 | 0.526
6 | NCI-H1648 |  |  |  |  |  | 0.368 | 0.479 | 0.285 | 0.483 | 0.352 |  |  |  |  |  |  |  |  |  | 
7 | NCI-H1650 |  |  |  |  |  | 0.267 | 0.283 | 0.241 | 0.205 | 0.326 | 0.274 | 0.254 | 0.24 | 0.22 | 0.202 | 0.19 | 0.208 | 0.189 | 0.203 | 0.184
8 | NCI-H1703 | 0.267 | 0.275 | 0.147 | 0.272 | 0.21 |  |  |  |  |  |  |  |  |  |  |  |  |  |  | 
9 | NCI-H1792 | 0.699 | 0.643 | 0.345 | 0.293 | 0.281 |  |  |  |  |  | 1.01 | 0.821 | 0.571 | 0.524 | 0.484 | 0.505 | 0.329 | 0.379 | 0.268 | 0.262
10 | NCI-H2342 |  |  |  |  |  | 0.472 | 0.476 | 0.43 | 0.371 | 0.383 | 0.332 | 0.337 | 0.272 | 0.331 | 0.267 | 0.689 | 0.669 | 0.635 | 0.569 | 0.51
11 | SW 900 |  |  |  |  |  | 0.335 | 0.261 | 0.289 | 0.31 | 0.273 | 0.476 | 0.289 | 0.269 | 0.158 | 0.289 | 0.188 | 0.188 | 0.196 | 0.167 | 0.185
